Laboratory results from PubChem BioAssay (NCI).
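Cultured in 96-well plates, cells were exposed to test compound for 48 hours across five concentrations. At the GI50, growth is halved. TGI marks complete inhibition of growth.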 *1 amine or outer side, *2 acyl side, *3 side chain or, on linkers, in order; H or OH if unused. Where a SMILES comes first, the peptide text is derived from it. Bridges are numbered along the chain shown (N, C = ends). Roman numbers before positions name the chains, in order. [ ]: non-standard residue; d: D form. Actinocin(9to1) = Cc1c2oc3c(C)ccc(C(=O)[*:1])c3nc-2c(C(=O)[*:2])c(N)c1=O; NMeV = CN[CH](C(=O)O)C(C)C; Sar = CNCC(=O)O

Legend:
Assay in all cases: growth of human tumour cells (NCI), 48 h
[1] = system: CAKI-1 renal
[2] = system: CCRF-CEM leukemia
[3] = system: DU-145 prostate
[4] = system: HOP-92 NSCLC
[5] = system: K-562 leukemia
[6] = system: KM12 colon
[7] = system: MOLT-4 leukemia
[8] = system: OVCAR-3 ovarian
[9] = system: OVCAR-8 ovarian
[10] = system: RPMI-8226 leukemia
[11] = system: RXF 393 renal
[12] = system: SF-295 CNS
[13] = system: SW-620 colon
[14] = system: UACC-62 melanoma

SMILES | TGI [1] [µM] | TGI [2] [µM] | TGI [3] [µM] | TGI [4] [µM] | TGI [5] [µM] | TGI [6] [µM] | TGI [7] [µM] | TGI [8] [µM] | TGI [9] [µM] | TGI [10] [µM] | TGI [11] [µM] | TGI [12] [µM] | TGI [13] [µM] | TGI [14] [µM] | GI50 [3] [µM]
O=C1OC(c2ccccc2)=N/C1=C\c1ccc([N+](=O)[O-])cc1 | > 100 | 68.3 | > 100 | 76.2 | > 100 | > 100 | 58.1 | > 100 | > 100 | > 100 | > 100 | > 100 | > 100 | 96 | –
O=C1c2cccc3cc([N+](=O)[O-])cc(c23)C(=O)N1Nc1ccc([N+](=O)[O-])cc1[N+](=O)[O-] | > 31.6 | 14.5 | > 46.4 | > 31.6 | > 31.6 | 26.3 | 11.8 | 82.8 | 21 | > 31.6 | > 31.6 | > 31.6 | 25.3 | 24.5 | –
COc1cc2c(/C=C3/C(=O)Nc4cccc(Cl)c43)c(Cl)[nH]c2cc1C | 7.3 | 3.3 | 5.66 | 22.6 | 3.64 | 3.72 | 1.26 | 4.29 | 11.8 | 4.69 | 7.41 | 4.21 | 5.25 | 4.21 | –
COc1cc(S(=O)(=O)Nc2ccc(-c3csc(N4C(=O)CSC4c4cccc(Oc5ccccc5)c4)n3)cc2)ccc1Cl (stereo not drawn) | > 100 | > 100 | > 100 | > 100 | > 100 | > 100 | > 100 | > 100 | > 100 | > 100 | 52.8 | > 100 | > 100 | > 100 | –
O=c1[nH]c(=O)n(C2COC(CO)C2O)cc1F (stereo not drawn) | > 100 | > 100 | > 100 | > 100 | > 100 | > 100 | > 100 | > 100 | > 100 | > 100 | 60.8 | > 100 | > 100 | > 100 | –
COc1ccc(C(C)NNC(=O)c2ccncc2)cc1OC (stereo not drawn) | > 100 | > 100 | > 100 | > 100 | > 100 | > 100 | > 100 | > 100 | > 100 | > 100 | > 100 | > 100 | > 100 | > 100 | –
O=C1NC2(CCN(CCc3ccccc3)CC2)Oc2ccccc21 | > 100 | > 100 | > 100 | 69.4 | > 100 | > 100 | > 100 | > 100 | > 100 | > 100 | > 100 | > 100 | > 100 | > 100 | –
CC1=C/C(=N\NC(N)=S)C(C(O)(C(F)(F)F)C(F)(F)F)C(C)(C)C1 (stereo not drawn) | > 10 | > 10 | > 10 | > 10 | > 10 | > 10 | > 10 | > 10 | > 10 | > 10 | > 10 | > 10 | > 10 | > 10 | –
Cc1c2oc3c(C)ccc(C(=O)NC4C(=O)NC(C(C)C)C(=O)N5CCCC5C(=O)N(C)CC(=O)N(C)C(C(C)C)C(=O)OC4C)c3nc-2c(C(=O)NC2C(=O)NC(C(C)C)C(=O)N3CCCC3C(=O)N(C)CC(=O)N(C)C(C(C)C)C(=O)OC2C)c(N)c1=O (stereo not drawn) (I: TVP[Sar][NMeV] / II: TVP[Sar][NMeV]; ester I:1-I:C, II:1-II:C; linker I:N-II:N via Actinocin(9to1); configuration not given here) | > 0.316 | 0.0033 | > 1 | 0.0203 | – | 0.019 | 0.00137 | 0.00907 | 0.00772 | > 1 | 0.00653 | 0.0687 | 0.105 | 0.00192 | 0.00129
O=C(O)C1C2c3ccccc3C(c3ccccc32)C1C(=O)NCC1CC1 (stereo not drawn) | > 100 | 96.8 | > 100 | > 100 | > 100 | > 100 | > 100 | > 100 | > 100 | 85.3 | > 100 | > 100 | > 100 | > 100 | –
O=C1SC(SCc2ccccc2)=NC12CC2c1ccccc1 (stereo not drawn) | 40.5 | 11.1 | > 81 | 53.1 | 55.3 | 33.2 | 10.3 | > 72.7 | 41.8 | 48.3 | 37.2 | 44.8 | 53.3 | 32.8 | –
COC(=O)c1cccc(C)c1C1CN=NC12Cc1cc(C)cc(C)c1C2=O (stereo not drawn) | > 100 | > 100 | > 100 | > 100 | > 100 | > 100 | 74.9 | > 100 | > 100 | > 100 | > 100 | – | > 100 | – | –
C=C1c2nc3ccccc3n2C=C(c2ccc(OC)cc2)N1c1ccc(OC)cc1 | 19.3 | > 100 | > 100 | 85.5 | > 100 | 44.9 | > 100 | 32.2 | 24.4 | > 100 | 29.8 | 32.6 | > 100 | 51.8 | –
COc1ccc(C2c3cc4c(cc3OC3(OC)COC(=O)C23)OCO4)c(OC)c1 (stereo not drawn) | > 100 | > 46.8 | > 100 | 97.6 | 34.4 | 40 | 71.2 | > 63 | > 100 | > 45.5 | 35.4 | 98.9 | > 100 | > 85.9 | –
C[N+]12C=CC=C1C(N1CCCC1)c1scc(-c3ccc(Br)cc3)c12 (stereo not drawn) | > 100 | 58.9 | > 100 | 42.1 | > 89.9 | 25.9 | > 65.3 | 39.1 | > 100 | 28.9 | 43.5 | > 100 | > 100 | 80.3 | –
